Reference: PubChem BioAssay (NCI)
Values joined by “and” are separate entries in the source; they are usually repeats but may differ in a detail not shown here. Equal entries are not always repeated.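 48-hour exposure; five concentrations; linearly interpolated endpoints. Abbreviation: GI50, concentration required for 50% inhibition of growth. At the TGI there is no net growth.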

The compounds below were run on CAKI-1 renal (assay: NCI tumour cell line growth inhibition, 48 h).

`O=C(c1ccccc1Br)C(F)(F)F` and `O=C(CCc1n[nH]c(=S)o1)Nc1ccccc1C(F)(F)F` cannot be ordered by TGI: greater than 100 µM for the first, greater than 100 µM for the second.

`COc1ccc(NC(=O)/C(Cc2cc(=O)oc3cc(O)ccc23)=N\NC(C)(C)C)c(OC)c1` and `Cc1cc(Cl)ccc1NC(=O)C(=O)Cc1nc2ccccc2o1` cannot be ordered by TGI: greater than 100 µM for the first, greater than 100 µM for the second.

Going from `O=C1/C(=C/c2ccc3c(c2)OCO3)SC2C=Nc3ccccc3N12` (centres undefined) to `O=C1/C(=C/c2cccc(Cl)c2Cl)N=C(c2ccccc2)N1C1CC1`, the TGI falls from greater than 100 µM to 39.5 µM.

`CCOc1ccc(NC(=O)C(=O)CC(=O)c2c(C)n([O-])c3ccccc3[n+]2=O)cc1` and `CCOc1ccc(NC(=O)CC#N)cc1` cannot be ordered by TGI: greater than 100 µM for the first, greater than 100 µM for the second.

`CCCC(=O)Nc1cc2c3c(c1)CCCN3CCC2` and `Cc1ccc(NC(=O)CCc2cc(C(C)(C)C)nc(=S)[nH]2)cc1C` cannot be ordered by TGI: greater than 10 µM for the first, greater than 100 µM for the second.

`OCC1OC(c2nc(C3=NCCCN3)cs2)C(O)C1O` (centres undefined) and `O=c1ccn([C@H]2CSC[C@@H](CO)C2)c(=O)[nH]1` cannot be ordered by TGI: greater than 100 µM for the first, greater than 100 µM for the second.

Compared with `O=C1C=CC(=O)c2cc3cc(CBr)ccc3cc21`, `COc1cc(F)ccc1-c1ncnc(Nc2cccc(CS(C)(=N)=O)c2)n1` (centres undefined) is higher in TGI: 6.25 µM for the first, greater than 100 µM for the second.

`CCC(C)COC(=O)c1ccc(N=Cc2ccc(C=Nc3ccc(C(=O)OCC(C)CC)cc3)cc2)cc1` (centres undefined) and `Cc1ccc(/C=C/C(=O)c2sc(-c3nc(C)c(C(=O)/C=C/c4ccc(C)cc4)s3)nc2C)cc1` cannot be ordered by TGI: greater than 100 µM for the first, greater than 100 µM for the second.

Going from `Cc1cc(N(CCC#N)CCC#N)ccc1N=Nc1ccc(C(=O)O)cc1` to `N#CC(C(=O)C(=O)C(C#N)c1ccc(Br)cc1)c1ccc(Br)cc1` (centres undefined), the TGI falls from greater than 100 µM to 37.1 µM.

`CN(C)CC1CCCC/C1=N/OC(=O)c1ccc(Cl)cc1` (centres undefined) and `O=C1/C(=C/c2ccc(Cl)cc2)CCC1CCN1CCOCC1` (centres undefined) cannot be ordered by TGI: greater than 100 µM for the first, greater than 100 µM for the second.

`COc1cccc(C2=NC(C(C)C)CO2)c1` (centres undefined) and `COc1ccc(Nc2nnc(-c3cc(O)ccc3O)s2)cc1` cannot be ordered by TGI: greater than 100 µM for the first, greater than 50 µM for the second.

`CCOC(=O)C(=[N+]=[N-])[Si](C)(C)C` and `CCCc1nc(NC#N)nc(C(=O)Nc2ccccc2)c1CC` cannot be ordered by TGI: greater than 100 µM for the first, greater than 100 µM for the second.

First: Cc1c2c(C#N)nccc2c(C)c2c1c1ccccc1n2Cc1ccccc1
Second: O=C(/C=C/c1cccc2ccccc12)c1ccccc1Cl
The TGI of the first is higher: greater than 100 µM for the first, 27.9 µM for the second.

First: COc1ccc(-c2nn(-c3ccc(NC(=O)c4ccc(Cl)c(Cl)c4)cc3)cc2-c2ccncc2)cc1Cl
Second: CN(C)C(n1cc2c(c1)-c1ccc(Cl)cc1C(c1ccccc1F)=NC2)n1cc2c(c1)-c1ccc(Cl)cc1C(c1ccccc1F)=NC2
The TGI of the first is lower: 5.26 µM for the first, greater than 100 µM for the second.

Going from `COc1cc2c(cc1OCCCNC(=O)c1cccc3c(=O)c4ccccc4[nH]c13)N=C[C@@H]1CCCN1C2=O` to `O=C(Nc1nc(=S)c2c(ncn2CCOC(=O)c2ccccc2)[nH]1)c1ccccc1`, the TGI rises from 0.571 µM to greater than 100 µM.

`Cc1[nH]c2ccccc2c1C(=O)/C=C/c1ccccc1O` and `COc1cc(-n2cc(-c3ccc(F)cc3)[nH]c2=O)cc(OC)c1OC` cannot be ordered by TGI: greater than 100 µM for the first, greater than 100 µM for the second.

Going from `Cn1cc(-c2csc(-c3c[nH]c4ccc(F)cc34)n2)c2cnccc21` to `CCC[CH2][Sn]([Cl])([CH2]CCC)[CH2]CCC`, the TGI falls from 3.05 µM to 1.23 µM (2.5-fold).

`O=C1C=CC(=O)c2cc3cc(CBr)ccc3cc21` and `COc1cc(F)ccc1-c1ncnc(Nc2cccc(CS(C)(=N)=O)c2)n1` (centres undefined) are within 1.5-fold of each other in GI50: 2.34 µM for the first, 1.92 µM for the second.

First: O=C1/C(=C/c2cccc(Cl)c2Cl)N=C(c2ccccc2)N1C1CC1
Second: COc1cc2c(cc1OCCCNC(=O)c1cccc3c(=O)c4ccccc4[nH]c13)N=C[C@@H]1CCCN1C2=O
The GI50 of the first is 130-fold higher: 14.8 µM for the first, 0.116 µM for the second.

First: COc1ccc(-c2nn(-c3ccc(NC(=O)c4ccc(Cl)c(Cl)c4)cc3)cc2-c2ccncc2)cc1Cl
Second: COc1ccc(Nc2nnc(-c3cc(O)ccc3O)s2)cc1
The GI50 of the first is 26-fold lower: 1.33 µM for the first, 34.2 µM for the second.

Going from `Cn1cc(-c2csc(-c3c[nH]c4ccc(F)cc34)n2)c2cnccc21` to `COc1cc(-n2cc(-c3ccc(F)cc3)[nH]c2=O)cc(OC)c1OC`, the GI50 rises from 1.65 µM to greater than 100 µM.

`CCC[CH2][Sn]([Cl])([CH2]CCC)[CH2]CCC` gave a GI50 of 0.167 µM.

Each compound was assayed on TK-10 renal (assay: NCI tumour cell line growth inhibition, 48 h).

With `CN(C)CC[PH+](c1ccccc1)c1ccccc1.CN(C)CC[PH+](c1ccccc1)c1ccccc1.[Cl-].[Pd+2]` the GI50 was greater than 100 µM.

`CN(C)CC[PH+](c1ccccc1)c1ccccc1.CN(C)CC[PH+](c1ccccc1)c1ccccc1.[Cl-].[Pd+2]` and `CCOc1ccc(NC(=O)C(=O)CC(=O)c2c(C)n([O-])c3ccccc3[n+]2=O)cc1` cannot be ordered by TGI: greater than 100 µM for the first, greater than 100 µM for the second.

Going from `COc1cc(NCc2ccc3nc(N)nc(N)c3c2C)cc(OC)c1OC` (tested in a mixture with another compound) to `COc1ccc(NC(=O)/C(Cc2cc(=O)oc3cc(O)ccc23)=N\NC(C)(C)C)c(OC)c1`, the TGI rises from 47.5 µM to greater than 100 µM.

`O=C(c1ccccc1Br)C(F)(F)F` and `Cc1cc(Cl)ccc1NC(=O)C(=O)Cc1nc2ccccc2o1` cannot be ordered by TGI: greater than 100 µM for the first, greater than 100 µM for the second.

`O=C1/C(=C/c2ccc3c(c2)OCO3)SC2C=Nc3ccccc3N12` (centres undefined) and `OCC1OC(c2nc(C3=NCCCN3)cs2)C(O)C1O` (centres undefined) cannot be ordered by TGI: greater than 100 µM for the first, greater than 100 µM for the second.

`CCCC(=O)Nc1cc2c3c(c1)CCCN3CCC2` showed a TGI greater than 10 µM.

With `COc1cc(NCc2ccc3nc(N)nc(N)c3c2C)cc(OC)c1OC` (tested in a mixture with another compound) the GI50 was 23.2 µM and 4.8 µM.
